We go through eight substances from patent publication US9272026B2, “HLA-A*1101-restricted WT1 peptide and pharmaceutical composition comprising the same” (International Institute of Cancer Immunology, Inc., priority 2006, dated 2016).

The test system of data set [1] is B-LCLs expressing WT1. As to the kind of experiment: 51Cr release assay: cytotoxic activity of CTL against cell expressing WT1 endogenously. The following applies: B-LCL into which a human WT1 gene is introduced; FIGS. 1, 2, 4, 5 and 7.
Experimental: (§1) The PBMCs were then seeded to a 24-well cell culture plate at the density of about 1×10^7 in RPMI 1640 medium containing 10% FCS, and a culture supernatant of B95-8 cells (cells producing EB virus) were added. They were cultured at 37° C. with 5% CO2 for about 1 month. B-LCL cells transformed with EB virus, which are B-cell tumor cells, were obtained. […] B-LCL cells were pulsed by incubating them with 20 μg/ml of WT1251, WT1279, WT1312, WT1313, WT1338, WT1378, WT1386, WT1415 or WT1436 for 2 hours, and irradiated with 80 Gy of radiation. The resulting B-LCL cells (hereinafter referred to as B-LCL cells pulsed with a WT1 peptide) were used as antigen-presenting cells for the following experiments.
(§2) 3×10^6 of autologous PBMCs were cultured in a 24-well cell culture plate in complete medium (45% RPMI, 45% AMI-V medium and 10% human AB serum) containing 20 μg/ml of WT1251, WT1279, WT1312, WT1313, WT1338, WT1378, WT1386, WT1415 or WT1436 at 37° C. with 5% CO2 for 1 week to obtain responding cells. 2×10^6 of the resulting responding cells were cocultured with 1×10^6 of the B-LCL cells pulsed with the same WT1 peptide in complete medium for 1 week (first stimulation). The PBMCs were coculutured with the B-LCL cells pulsed with the WT1 peptide three more times (second to fourth stimulations) under the conditions under which 20 IU/ml (final concentration) of IL2 was added as follows: second stimulation: two times every other day from 3 days after the initiation of stimulation; third and fourth stimulations: three times at intervals of one day from the day after the initiation of stimulation. The resulting cells were concentrated using Negative Selection Columns Gravity Feed Kit (StemSp) so that the ratio of CD8-positive T cells became about 80%, and cocultured with the B-LCL cells pulsed with the WT1 peptide (fifth stimulation). CD8-positive T cells (CTLs) obtained 5 days after the final stimulation were used for measurement of the cytotoxic activity.
(§3) The cytotoxic activity of CTLs was measured using ^51Cr release assay. CTL cells (hereinafter referred to as effector cells) were mixed at the ratio (E/T ration) of 1:1 to 30:1 in 200 μl of medium with target cells into which ^51Cr had been incorporated, and cultured in a 96-well cell culture plate at 37° C. with 5% CO2 for 4 hours. B-LCL cells pulsed with the same WT1 peptide as that used for induction of CTLs (BLCL-Ps), and B-LCL cells without pulsing with a WT1 peptide (BLCL-NPs) were used as target cells. After the culture, the supernatants were collected by centrifugation. The amounts of ^51Cr released into the supernatants were measured using a liquid scintillation counter. The cytotoxic activity (%) was determined using the following formula: (^51Cr release in supernatant of sample−Spontaneous ^51Cr release)/(Maximum ^51Cr release−Spontaneous ^51Cr release)×100 wherein Spontaneous ^51Cr release is ^51Cr release observed when the target cells into which ^51Cr had been incorporated were cultured alone under the same condition, and Maximum ^51Cr release is ^51Cr release observed when the target cells into which ^51Cr had been incorporated were completely lysed using 1% Triton X-100.
(§4) The cytotoxic activity of CTLs induced with WT1251, WT1279, WT1313, WT1338 or WT1386 against B-LCLs expressing WT1 was determined using the method described above.
The subject of data set [2] is B-LCL cells pulsed with the same WT1 peptide (BLCL-Ps). As to the kind of experiment: 51Cr release assay: cytotoxic activity of CTLs induced with WT1 peptide against peptide-pulsed B-LCL cells. The note with it: CTLs induced with 20 μg/ml peptide; E/T ratio 1:1 to 30:1; 4 hours; FIGS. 1-9.
Experimental: The PBMCs were then seeded to a 24-well cell culture plate at the density of about 1×10^7 in RPMI 1640 medium containing 10% FCS, and a culture supernatant of B95-8 cells (cells producing EB virus) were added. They were cultured at 37° C. with 5% CO2 for about 1 month. B-LCL cells transformed with EB virus, which are B-cell tumor cells, were obtained. […] B-LCL cells were pulsed by incubating them with 20 μg/ml of WT1251, WT1279, WT1312, WT1313, WT1338, WT1378, WT1386, WT1415 or WT1436 for 2 hours, and irradiated with 80 Gy of radiation. The resulting B-LCL cells (hereinafter referred to as B-LCL cells pulsed with a WT1 peptide) were used as antigen-presenting cells for the following experiments. […]
The cytotoxic activity of CTLs was measured using ^51Cr release assay. […] The amounts of ^51Cr released into the supernatants were measured using a liquid scintillation counter. The cytotoxic activity (%) was determined using the following formula: (^51Cr release in supernatant of sample−Spontaneous ^51Cr release)/(Maximum ^51Cr release−Spontaneous ^51Cr release)×100 wherein Spontaneous ^51Cr release is ^51Cr release observed when the target cells into which ^51Cr had been incorporated were cultured alone under the same condition, and Maximum ^51Cr release is ^51Cr release observed when the target cells into which ^51Cr had been incorporated were completely lysed using 1% Triton X-100.
For the next data set, the system named is human cells. The following applies: HLA-A*2402; Non-patent Document 12; cited from earlier work.
For data set [3], the system named is B-LCLs expressing WT1.
Experimental: as §1, §2, §3, §4
Data set [4] concerns human peripheral blood mononuclear cells having HLA-A*0201. The note with it: human PBMCs having HLA-A*0201; Non-patent Document 11; cited from earlier work.
For data set [5], the system named is PBMCs from HLA-A*1101-positive healthy donors. As to the kind of experiment: Induction of CTL by WT1 peptide dimer and related peptides using PBMCs from HLA-A*1101-positive healthy donors 1-3. The data set is classed as cell-based, human. The following applies: FIGS. 10-14. The source says:
After the culture, the supernatants were collected by centrifugation.
Abilities of the resulting WT1378 peptide dimer, WT1378 peptide, modified WT1378 peptide (G→I) (SEQ ID No: 11) and modified WT1378 peptide (G→V) (SEQ ID No: 12) as well as WT1379 peptide (SEQ ID No: 13, as disclosed in WO 2002/28414) to induce a CTL were examined using PBMCs from HLA-A*1101-positive healthy donors 1-3 according to the method as described above.

Read-outs that look alike come from different tables or passages of the source. No end group written: not given here.

Consider AAGSSSSVK [WT1251], for which, in the data set with B-LCLs expressing WT1 [1], the “cytotoxic activity of induced CTLs against cells expressing WT1 gene endogenously” value is “have a cytotoxic activity against cells expressing WT1 gene endogenously”. For the same substance, the “cytotoxic activity of induced CTLs against BLCL-Ps as compared with BLCL-NPs” value in data set [2] is recorded as “damage specifically BLCL-Ps”.

“CMTWNQMNL (listed as Homo sapiens) [WT1235, WT1 peptide that matches HLA-A*2402]”: in the data set on human cells, the “induction of WT1-specific CTLs” value is “WT1-specific CTLs (TAK-1) are induced”.

Consider KTCQRKFSR [WT1386], for which, in the data set on B-LCLs expressing WT1 [3], the “cytotoxic activity of induced CTLs against cells expressing WT1 gene endogenously” value was “have a cytotoxic activity against cells expressing WT1 gene endogenously”.

Consider PILCGAQYR [WT1279], for which, in the data set on B-LCLs expressing WT1 [3], the “cytotoxic activity of induced CTLs against cells expressing WT1 gene endogenously” value is listed as “have a cytotoxic activity against cells expressing WT1 gene endogenously”.

With SASETSEKR [WT1313], the “cytotoxic activity of induced CTLs against cells expressing WT1 gene endogenously” value with B-LCLs expressing WT1 [3] is “have a cytotoxic activity against cells expressing WT1 gene endogenously”.

Take SHLQMNSRK [WT1338]: the “cytotoxic activity of induced CTLs against cells expressing WT1 gene endogenously” value in the data set with B-LCLs expressing WT1 [3] is recorded as “have a cytotoxic activity against cells expressing WT1 gene endogenously”.

Take “SLGEQQYSV (listed as Homo sapiens) [WH187 peptide]”: in data set [4], the “induction of WT1-specific CTLs” value was “WT1-specific CTLs are induced”.

Regarding “WT1379 peptide: known peptide disclosed in WO 2002/28414; differs from WT1378 peptide by one amino acid in the WT1 protein sequence (GVKPFQCKT; listed as Homo sapiens)”, the “ability to induce a CTL” value in data set [5] is “much lower than that of WT1378 peptide”.
